In BindingDB's records for doi:10.1111/cbdd.12207 (Nirma University, 2014):

Target: T1, Gag-Pol polyprotein [1148-1435] (Human immunodeficiency virus 1, UniProt P04585)
T1 construct: 1148-1435
Assay: HIV-1 Integrase Assay
Description: HIV-1 integrase inhibitory activity of compounds were determined using strand transferase inhibitory assay.

| Structure (SMILES) | IC50 [µM] |
| --- | --- |
| O=c1oc2ccccc2c(O)c1C1c2ccccc2Oc2c1c(=O)oc1ccccc21 (centres undefined) | 122 |
| O=C(NNCc1ccccc1O)c1ccccc1O [2-hydroxy-N'-[(2-hydroxyphenyl)methyl]benzohydrazide (Compound 4)] | 0.7 |
| O=C(O)C(=O)CC(=O)c1c[nH]c2ccc(Cl)cc12 | 0.52 |
| O=C(NO)c1ccc2c(c1)CCN2Cc1ccc(F)cc1F [1-[(2,4-difluorophenyl)methyl]-N-hydroxy-2,3-dihydroindole-5-carboxamide (Compound 1)] | 84 |
| COC(=O)c1ccc(CC(=O)c2cc(C=O)c(O)cc2C)c(C)c1O [methyl 4-[2-(5-formyl-4-hydroxy-2-methylphenyl)-2-oxoethyl]-2-hydroxy-3-methylbenzoate (Compound 5)] | 123 |
| O=C(Nc1ncnc2c1ncn2Cc1ccc(F)cc1)c1ccc2cccnc2c1O [N-{9-[(4-fluorophenyl)methyl]purin-6-yl}-8-hydroxyquinoline-7-carboxamide (Compound 20)] | 11.2 |
| O=C1/C(=C\c2cccc(O)c2)C=NN1C(=O)c1ccccc1O [(4Z)-2-(2-hydroxybenzoyl)-4-[(3-hydroxyphenyl)methylidene]pyrazol-3-one (Compound 11)] | 7.4 |
| O=C(NCc1ccc(Cl)c(Cl)c1)c1nc(-c2cccs2)nc(O)c1O [N-[(3,4-dichlorophenyl)methyl]-5,6-dihydroxy-2-(thiophen-2-yl)pyrimidine-4-carboxamide (Compound 14)] | 0.01 |
| O=C(NCc1cc2ccccc2s1)c1nc(-c2cccs2)nc(O)c1O [N-(1-benzothiophen-2-ylmethyl)-5,6-dihydroxy-2-(thiophen-2-yl)pyrimidine-4-carboxamide (Compound 12)] | 0.01 |
| O=C1c2ccccc2C(C2CCCCC2)C(=O)N1O (centres undefined) [4-cyclohexyl-2-hydroxy-4H-isoquinoline-1,3-dione (Compound 3)] | 1.35 |
| COC(=O)c1ccc2cc(CCc3ccc(O)c(O)c3)oc2c1 [methyl 2-[2-(3,4-dihydroxyphenyl)ethyl]-1-benzofuran-6-carboxylate (Compound 18)] | 43.8 |
| O=C1C(=O)c2ccccc2C(=O)C1=Cc1c(O)c(O)c2ccccc2c1O [2-hydroxy-3-[(3-hydroxy-1,4-dioxonaphthalen-2-yl)methyl]naphthalene-1,4-dione (Compound 10)] | 20 |
| C=c1[nH]n(C(=O)c2ccc(Cl)cc2)c(=O)c1=Cc1ccc(O)cc1 | 293 |
| O=C(O)C(=O)CC(=O)c1cc(OCc2ccccc2)cc(OCc2ccccc2)c1 | 0.059 |
| Oc1ccccc1CNNCC(O)COc1ccccc1 (centres undefined) [2-{[2-(2-hydroxy-3-phenoxypropyl)hydrazin-1-yl]methyl}phenol (Compound 15)] | 200 |
| O=C(O)C(=O)CC(=O)c1cn(Cc2ccc(F)cc2)c2ccc(F)cc2c1=O [(2Z)-4-{6-fluoro-1-[(4-fluorophenyl)methyl]-4-oxoquinolin-3-yl}-2-hydroxy-4-oxobut-2-enoic acid (Compound 9)] | 2.3 |
| O=C(NNC(=O)c1cccc(O)c1O)c1ccccc1O [2,3-dihydroxy-N'-(2-hydroxybenzoyl)benzohydrazide (Compound 17)] | 0.5 |
| COc1cc2c(cc1OC)C(=O)N1CSCC1C(=O)S2 (centres undefined) [12,13-dimethoxy-5,9-dithia-3-azatricyclo[8.4.0.0 ,⁷]tetradeca-1(14),10,12-triene-2,8-dione (Compound 8)] | 331 |
| Cn1c(=O)c(C(=O)O)c(O)c2cc(-c3ccc(F)cc3)ccc21 [6-(4-fluorophenyl)-4-hydroxy-1-methyl-2-oxoquinoline-3-carboxylic acid (Compound 6)] | 23 |
